Results from article PMC7822874, “Chemoprotective antimalarials identified through quantitative high-throughput screening of Plasmodium blood and liver stage parasites” (Scientific Reports, 2021).

Test system: Plasmodium falciparum Dd2 asexual blood stage parasites
Assay: microbe, parasite or virus in culture
Parameters: species or system Plasmodium falciparum Dd2 in human erythrocytes; single determination (one 11-point concentration-response curve)
Details: Plasmodium falciparum, DD2, Erythrocyte, 72 h; read-out: AC50

Compound | AC50
OCc1cccc(-c2ccc3ncc(Nc4ccc(OCCN5CCCC5)cc4)n3n2)c1 [NCGC00412543-01] | 3.44 µM
COc1ccccc1-c1ccc2ncc(Nc3ccc4[nH]ccc4c3)n2n1 [NCGC00412550-01] | 4.33 µM
Fc1ccc(-c2ccc3ncc(Nc4ccnc(N5CCOCC5)c4)n3n2)cc1 [NCGC00412558-01] | 1.72 µM
COc1cncc(Nc2cnc3ccc(-c4ccc(OC)c(OC)c4)nn23)c1 [NCGC00412563-01] | 1.22 µM
COc1cncc(Nc2cnc3ccc(-c4ccc(F)cc4)nn23)c1 [NCGC00412595-01] | 3.06 µM
c1ccc(Oc2ccc(Nc3cnc4ccc(N5CCOCC5)nn34)cc2)cc1 [NCGC00412601-01] | 7.69 µM
COc1ccc(-c2ccc3ncc(Nc4ccnc(N5CCOCC5)c4)n3n2)cn1 [NCGC00412623-01] | 4.85 µM
O=C(c1ccc(-c2ncc3cnc(-c4ccccc4)cn23)cc1)N1CCc2cccnc21 [NCGC00413975-01] | 17.2 µM
O=C(c1cccc(O)c1)N1CC=C(c2cnc3cnc(-c4ccccc4)cn23)CC1 [NCGC00414040-01] | 9.68 µM
Cc1ccccc1-c1nccn2c(C3CN(Cc4ccccc4O)C3)ncc12 [NCGC00414046-01] | 5.44 µM
COCCCNC(=O)C1(C)CN(C)Cc2ccc(Nc3ccccc3)nc21 (stereo not drawn) [NCGC00414477-01] | 6.85 µM
COCCN1Cc2ccc(NCC(C)C)nc2C(C)(C(=O)Nc2ccncc2)C1 (stereo not drawn) [NCGC00414482-01] | 21.7 µM
COc1cccc(Nc2ccc3c(n2)C(C)(C(=O)NC2CCC2)CN(C)C3)c1 (stereo not drawn) [NCGC00414508-01] | 15.3 µM
COc1cccc(Nc2ccc3c(n2)C(C)(C(=O)NCC2CC2)CN(C)C3)c1 (stereo not drawn) [NCGC00414531-01] | 12.2 µM
COc1cccc(Nc2ccc3c(n2)C(C)(C(=O)N2CCN(C)CC2)CN(C)C3)c1 (stereo not drawn) [NCGC00414535-01] | 15.3 µM
COc1cccc(Nc2ccc3c(n2)C(C)(C(=O)N2CCCC2)CN(C)C3)c1 (stereo not drawn) [NCGC00414569-01] | 17.2 µM
COc1cccc(NC(=O)C2(C)CN(C)Cc3ccc(N4CCOCC4)nc32)c1 (stereo not drawn) [NCGC00414578-01] | 3.85 µM
CN1Cc2ccc(Nc3ccccc3)nc2C(C)(C(=O)NCc2ccc3c(c2)OCO3)C1 (stereo not drawn) [NCGC00414588-01] | 13.7 µM
Cn1cnc2ccc(-c3cccc(O)c3)nc2c1=O [NCGC00414672-01] | 6.11 µM
O=C1c2c(nc(CN3CCCC(CO)C3)n2Cc2ccccc2)NCCN1Cc1cccc(Cl)c1 (stereo not drawn) [NCGC00415148-01] | 15 µM
COc1ccc(NC(=O)c2nnn3c2CN(Cc2cccc(Cl)c2)C(=O)CC3)c(C)c1 [NCGC00415347-01] | 2.17 µM
CC1(c2ccccc2)N(Cc2ccccc2)C(=O)OC12CCN(Cc1cccnc1)CC2 (stereo not drawn) [NCGC00415410-01] | 15.3 µM
CC1(c2ccccc2)N(Cc2cccnc2)C(=O)OC12CCN(C(=O)Cc1ccc(Cl)cc1)CC2 (stereo not drawn) [NCGC00415462-01] | 13.3 µM
COc1cccc(CN2C(=O)OC3(CCN(Cc4c[nH]c5ccccc45)CC3)C2(C)c2cccnc2)c1 (stereo not drawn) [NCGC00415482-01] | 8.41 µM
Cc1nc(CN2C(=O)OC3(CCN(C(=O)Cc4ccc5c(c4)OCO5)CC3)C2(C)c2ccccc2)cs1 (stereo not drawn) [NCGC00415487-01] | 2.11 µM
COc1ccc(C(=O)N2CCC3(CC2)OC(=O)N(Cc2ccc(O)cc2)C3(C)c2ccccc2)cn1 (stereo not drawn) [NCGC00415507-01] | 6.68 µM

Compound | AC50
COc1ccccc1C(=O)N1CCC2(CC1)OC(=O)N(CCOc1ccccc1)C2(C)c1cccnc1 (stereo not drawn) [NCGC00415508-01] | 9.44 µM
COc1cccc(CN2C(=O)OC3(CCN(Cc4ccc5c(c4)CCO5)CC3)C2(C)c2cccnc2)c1 (stereo not drawn) [NCGC00415555-01] | 4.73 µM
COc1cccc(CN2C(=O)OC3(CCN(Cc4ccccc4OC)CC3)C2(C)c2cccnc2)c1 (stereo not drawn) [NCGC00415564-01] | 4.73 µM
COc1cncc(CN2CCC3(CC2)OC(=O)N(Cc2ccc(O)cc2)C3(C)c2ccccc2)c1 (stereo not drawn) [NCGC00415566-01] | 9.44 µM
CC1(c2ccccc2)N(Cc2ccccc2)C(=O)OC12CCN(Cc1cccc(O)c1)CC2 (stereo not drawn) [NCGC00415604-01] | 8.41 µM
COc1cccc(CN2CCC3(CC2)OC(=O)N(Cc2ccccc2)C3(C)c2ccccc2)c1 (stereo not drawn) [NCGC00415605-01] | 15 µM
Cc1nc(CN2C(=O)OC3(CCN(C(=O)c4ccc(Oc5ccccc5)cc4)CC3)C2(C)c2ccccc2)cs1 (stereo not drawn) [NCGC00415614-01] | 13.3 µM
COc1ccccc1C(=O)N1CCC2(CC1)OC(=O)N(Cc1ccccc1C#N)C2(C)c1ccccc1 (stereo not drawn) [NCGC00415624-01] | 15 µM
CC1(c2ccccc2)N(Cc2cccnc2)C(=O)OC12CCN(Cc1ccccc1)CC2 (stereo not drawn) [NCGC00415633-01] | 17.2 µM
CC1(c2ccccc2)N(Cc2ccccc2F)C(=O)OC12CCN(Cc1cccc(O)c1)CC2 (stereo not drawn) [NCGC00415649-01] | 6.68 µM
CC1(c2ccccc2)N(Cc2ccc(O)cc2)C(=O)OC12CCN(Cc1c[nH]c3ccccc13)CC2 (stereo not drawn) [NCGC00415668-01] | 5.31 µM
CN1CCN(Cc2nnc(C(=O)N3CCC[C@@H]3c3ccc(Br)cc3)n2Cc2ccccc2)CC1 [NCGC00415715-01] | 7.5 µM
O=C(c1nnc(CN2CCC(F)(F)CC2)n1-c1cccnc1)N1CCC[C@@H]1C(c1ccccc1)c1ccccc1 [NCGC00415758-01] | 15 µM
Cn1ccc(NCc2nnc(C(=O)N3CCC[C@@H]3C(c3ccccc3)c3ccccc3)n2-c2ccccc2)n1 [NCGC00415774-01] | 1.33 µM
O=C(c1nnc(CNc2ccncc2)n1-c1ccccc1)N1CCC[C@@H]1C(c1ccccc1)c1ccccc1 [NCGC00415781-01] | 10.6 µM
CC(=O)Nc1cccc(OCc2nnc(C(=O)N3CCC[C@@H]3C(c3ccccc3)c3ccccc3)n2-c2ccccc2)c1 [NCGC00415783-01] | 10.6 µM
O=C(c1nnc(COc2ccc(OC(F)(F)F)cc2)n1-c1ccccc1)N1CCC[C@@H]1C(c1ccccc1)c1ccccc1 [NCGC00415795-01] | 8.41 µM
O=[S+]([O-])(c1ccccc1)N1CC(CNc2cccnc2)C2(CN(c3ccccc3)C2)C1 (stereo not drawn) [NCGC00415961-01] | 21.7 µM
CN(C)Cc1cn2c(=O)n(C)cc(-c3cccc(C(F)(F)F)c3)c2n1 [NCGC00416418-01] | 21.7 µM
Cc1noc(C)c1-c1nccc2c(=O)cc(N(C)c3ccccc3)oc12 [NCGC00416678-01] | 17.2 µM
O=c1cc(-c2cccnc2)oc2c(-c3ccccc3Oc3ccccc3)nccc12 [NCGC00416761-01] | 17.2 µM
COc1cc2c(cc1Oc1ccccc1)NC(=O)C21CCN(c2cnccn2)CC1 [NCGC00416813-01] | 2.17 µM
COc1cc2c(cc1OC1CCCC1)NC(=O)C21CCN(Cc2nccs2)CC1 [NCGC00416850-01] | 19.3 µM
COc1cc2c(cc1OC1CCCC1)NC(=O)C21CCN(C(=O)c2cccc(C#N)c2)CC1 [NCGC00416876-01] | 8.41 µM
COc1cc2c(cc1OC1CCCC1)NC(=O)C21CCN(c2cnccn2)CC1 [NCGC00416906-01] | 7.69 µM
COc1cc2c(cc1OCC1CC1)NC(=O)C21CCN(c2nccs2)CC1 [NCGC00416908-01] | 21.7 µM

Compound | AC50
COc1cc2c(cc1OCc1ccccc1)NC(=O)C21CCN(c2ccccn2)CC1 [NCGC00416940-01] | 15.3 µM
CN1CCOc2c(C(=O)NCc3cccnc3)cc(-c3cccc4[nH]ccc34)cc21 [NCGC00416962-01] | 8.63 µM
Cc1cc(C)c(CNC(=O)c2cc(-c3cccnc3)cc3c2OCCN3C(C)C)c(=O)[nH]1 [NCGC00416981-01] | 19.3 µM
COc1ncc(-c2cc(C(=O)NCc3c(C)cc(C)[nH]c3=O)c3c(c2)N(C(C)C)CCO3)cn1 [NCGC00416983-01] | 9.44 µM
CN(C)CCNC(=O)c1cc(-c2ccccc2F)cc2c1OCCN2Cc1cccnc1 [NCGC00416987-01] | 6.85 µM
COc1ccc(-c2cc(C(=O)NCc3c(C)cc(C)[nH]c3=O)c3c(c2)N(C)CCO3)cn1 [NCGC00417013-01] | 19.3 µM
CC(=O)Nc1cc(-c2cc(C(=O)NCCc3c[nH]cn3)c3c(c2)N(C)CCO3)ccn1 [NCGC00417032-01] | 13.7 µM
CC(=O)Nc1cccc(-c2cc(C(=O)NCc3c(C)cc(C)[nH]c3=O)c3c(c2)N(C(C)C)CCO3)c1 [NCGC00417042-01] | 9.44 µM
CNC(=O)c1cc(-c2ccnc(N3CCOCC3)c2)cc2c1OCCN2Cc1cccnc1 [NCGC00417111-01] | 8.41 µM
Cc1cc(C)c(CNC(=O)c2cc(-c3ccnn3C)cc3c2OCCN3C(C)C)c(=O)[nH]1 [NCGC00417130-01] | 15.3 µM
COc1ncccc1-c1nc(-c2c(C)noc2C)cc2c1cc(-c1ccccc1)n2C [NCGC00417163-01] | 13.7 µM
Cc1noc(C)c1-c1cc2c(cc(-c3ccccc3)n2C)c(-c2cccnc2)n1 [NCGC00417168-01] | 10.9 µM
Cc1noc(C)c1-c1cc2c(cc(C)n2CCN(C)C)c(-c2cccc(O)c2)n1 [NCGC00417178-01] | 17.2 µM
Cc1noc(C)c1-c1cc2c(cc(C)n2CCN(C)C)c(Nc2ccn(C)n2)n1 [NCGC00417199-01] | 13.7 µM
COc1cc(-c2nc(-c3c(C)noc3C)cc3c2cc(C)n3CCN(C)C)ccn1 [NCGC00417201-01] | 17.2 µM
COc1cccc(-c2nc(-c3c(C)noc3C)cc3c2cc(C)n3CCN(C)C)c1 [NCGC00417217-01] | 17.2 µM
Cc1noc(C)c1-c1cc2cc(CN(C)C)oc2c(NCCc2ccccc2)n1 [NCGC00417471-01] | 13.7 µM
Cc1noc(C)c1-c1cc2cc(CN(C)C)oc2c(Nc2cccnc2)n1 [NCGC00417472-01] | 12.2 µM
Cc1cc2cc(-c3c(C)noc3C)nc(N(C)CCN(C)C)c2o1 [NCGC00417474-01] | 12.2 µM
Cc1noc(C)c1-c1cc2cc(CN(C)C)oc2c(NCCOc2ccccc2)n1 [NCGC00417493-01] | 15.3 µM
Cc1noc(C)c1-c1cc2cc(CN(C)C)oc2c(NCc2cccnc2)n1 [NCGC00417547-01] | 1.22 µM
CNC(=O)CCn1ncc2cc(OCc3ccccc3-c3ccccc3OC)ccc21 [NCGC00418023-01] | 15.3 µM
CNC(=O)CCn1ncc2cc(OCc3ccccc3-c3ccc(OC)cc3Cl)ccc21 [NCGC00418132-01] | 16.8 µM
O=C1COCC2(CN(Cc3ccsc3)C2)CN1Cc1cccc(OC(F)(F)F)c1 [NCGC00418928-01] | 17.2 µM
O=C(Cc1ccc2c(c1)OCO2)N1CCOCC2(CN(Cc3ccccc3)C2)C1 [NCGC00418996-01] | 6.85 µM
COc1ccccc1CN1CCOCC2(C1)CN([S+](=O)([O-])c1ccccc1)C2 [NCGC00419002-01] | 12.2 µM
